± gives the expanded uncertainty stated by the source.

A short description of the data set: activity coefficient (dimensionless); of the first substance listed, at infinite dilution; xn = mol fraction of the nth substance listed. The conditions noted are these: 100 kPa, Liquid, Chromatography, x1 = 0.

As for `CCCCCCCCCC` [decane] + CCCC[n+]1ccc(C#N)cc1.O=S(=O)([N-]S(=O)(=O)C(F)(F)F)C(F)(F)F, the activity coefficient (308.15 K) stood at 124 ± 11; the activity coefficient (318.15 K) is 115 ± 10; the activity coefficient (328.15 K) came out at 107 ± 9; the activity coefficient (338.15 K) came to 99.8 ± 8.6; the activity coefficient (348.15 K) was determined as 93.8 ± 8.1; the activity coefficient (358.15 K) was found to be 88.2 ± 7.6. Further, the activity coefficient (368.15 K) is 83.6 ± 7.2.
For `C=CCCCCC` [1-heptene] + CCCC[n+]1ccc(C#N)cc1.O=S(=O)([N-]S(=O)(=O)C(F)(F)F)C(F)(F)F, the activity coefficient (308.15 K) amounted to 21.3 ± 1.8; the activity coefficient (318.15 K) came out at 20.7 ± 1.8; the activity coefficient (328.15 K) came out at 20 ± 1.7; the activity coefficient (338.15 K) was determined as 19.5 ± 1.7; the activity coefficient (348.15 K) is 19 ± 1.6; the activity coefficient (358.15 K) is 18.5 ± 1.6. The activity coefficient (368.15 K) turned out to be 18.1 ± 1.6.
As for `CC(C)c1ccccc1` [isopropylbenzene] + CCCC[n+]1ccc(C#N)cc1.O=S(=O)([N-]S(=O)(=O)C(F)(F)F)C(F)(F)F, the activity coefficient (308.15 K) stood at 4.04 ± 0.35; the activity coefficient (318.15 K) came to 4.13 ± 0.36; the activity coefficient (328.15 K) turned out to be 4.22 ± 0.36; the activity coefficient (338.15 K) came to 4.31 ± 0.37; the activity coefficient (348.15 K) is 4.39 ± 0.38; the activity coefficient (358.15 K) stood at 4.47 ± 0.39. Moreover, the activity coefficient (368.15 K) came out at 4.56 ± 0.39.
For `CCOC(C)=O` [ethyl acetate] + CCCC[n+]1ccc(C#N)cc1.O=S(=O)([N-]S(=O)(=O)C(F)(F)F)C(F)(F)F, the activity coefficient was found to be 0.839 ± 0.07 (308.15 K); 0.89 ± 0.074 (318.15 K); 0.941 ± 0.077 (328.15 K); 0.995 ± 0.082 (338.15 K); 1.05 ± 0.09 (348.15 K); 1.1 ± 0.09 (358.15 K). Moreover, the activity coefficient (368.15 K) is 1.15 ± 0.1.
For the molecule `CCC[N+](=O)[O-]` [1-nitropropane] + CCCC[n+]1ccc(C#N)cc1.O=S(=O)([N-]S(=O)(=O)C(F)(F)F)C(F)(F)F, the activity coefficient (308.15 K) worked out at 0.74 ± 0.063; the activity coefficient (318.15 K) amounted to 0.768 ± 0.065; the activity coefficient (328.15 K) was found to be 0.796 ± 0.067; the activity coefficient (338.15 K) was 0.824 ± 0.069; the activity coefficient (348.15 K) came to 0.851 ± 0.071; the activity coefficient (358.15 K) worked out at 0.877 ± 0.073. For the same molecule, the activity coefficient (368.15 K) worked out at 0.904 ± 0.075.
`CO` [methanol] + CCCC[n+]1ccc(C#N)cc1.O=S(=O)([N-]S(=O)(=O)C(F)(F)F)C(F)(F)F: the activity coefficient (308.15 K) is 1.33 ± 0.11; the activity coefficient (318.15 K) was 1.27 ± 0.11; the activity coefficient (328.15 K) was found to be 1.21 ± 0.1; the activity coefficient (338.15 K) was 1.17 ± 0.1; the activity coefficient (348.15 K) amounted to 1.12 ± 0.09; the activity coefficient (358.15 K) came to 1.08 ± 0.09. For the same molecule, where the note is “368.15 K”, the activity coefficient worked out at 1.05 ± 0.09.
Consider `CC(C)CO` [2-methyl-1-propanol] + CCCC[n+]1ccc(C#N)cc1.O=S(=O)([N-]S(=O)(=O)C(F)(F)F)C(F)(F)F, for which the activity coefficient (308.15 K) is 3.2 ± 0.28; the activity coefficient (318.15 K) came to 2.93 ± 0.25; the activity coefficient (328.15 K) stood at 2.7 ± 0.23; the activity coefficient (338.15 K) was found to be 2.5 ± 0.22; the activity coefficient (348.15 K) worked out at 2.32 ± 0.2; the activity coefficient (358.15 K) turned out to be 2.18 ± 0.19. In addition, under “368.15 K”, the activity coefficient turned out to be 2.04 ± 0.18.
As to `C=CCCC` [1-pentene] + CCCC[n+]1ccc(C#N)cc1.O=S(=O)([N-]S(=O)(=O)C(F)(F)F)C(F)(F)F, the activity coefficient (308.15 K) came to 11.5 ± 1; the activity coefficient (318.15 K) amounted to 10.9 ± 0.9; the activity coefficient (328.15 K) is 10.3 ± 0.9; the activity coefficient (338.15 K) was 9.83 ± 0.85; the activity coefficient (348.15 K) was 9.41 ± 0.81; the activity coefficient (358.15 K) worked out at 9.02 ± 0.78. Where the note is “368.15 K”, the activity coefficient came to 8.65 ± 0.75.
For `CCC(=O)OC` [methyl propanoate] + CCCC[n+]1ccc(C#N)cc1.O=S(=O)([N-]S(=O)(=O)C(F)(F)F)C(F)(F)F, the activity coefficient came out at 0.8 ± 0.067 (308.15 K); 0.855 ± 0.071 (318.15 K); 0.905 ± 0.075 (328.15 K); 0.956 ± 0.079 (338.15 K); 1.01 ± 0.08 (348.15 K); 1.06 ± 0.09 (358.15 K). Moreover, where the note is “368.15 K”, the activity coefficient was 1.11 ± 0.09.
Take `CCCCCCC` [heptane] + CCCC[n+]1ccc(C#N)cc1.O=S(=O)([N-]S(=O)(=O)C(F)(F)F)C(F)(F)F: the activity coefficient (308.15 K) turned out to be 45.8 ± 4; the activity coefficient (318.15 K) was determined as 42.5 ± 3.7; the activity coefficient (328.15 K) turned out to be 39.8 ± 3.4; the activity coefficient (338.15 K) was 37.4 ± 3.2; the activity coefficient (348.15 K) was 35.3 ± 3.1; the activity coefficient (358.15 K) amounted to 33.5 ± 2.9. Further, where the note is “368.15 K”, the activity coefficient was 31.7 ± 2.7.
Regarding `CCC(C)O` (configuration not stated) [butan-2-ol] + CCCC[n+]1ccc(C#N)cc1.O=S(=O)([N-]S(=O)(=O)C(F)(F)F)C(F)(F)F, the activity coefficient turned out to be 2.69 ± 0.23 (308.15 K); 2.5 ± 0.2 (318.15 K); 2.33 ± 0.2 (328.15 K); 2.18 ± 0.19 (338.15 K); 2.06 ± 0.18 (348.15 K); 1.94 ± 0.17 (358.15 K). The activity coefficient (368.15 K) was found to be 1.84 ± 0.16.
As to `C1CCCCCC1` [cycloheptane] + CCCC[n+]1ccc(C#N)cc1.O=S(=O)([N-]S(=O)(=O)C(F)(F)F)C(F)(F)F, the activity coefficient was found to be 22.3 ± 1.9 (308.15 K); 20.6 ± 1.8 (318.15 K); 19.1 ± 1.7 (328.15 K); 17.8 ± 1.5 (338.15 K); 16.7 ± 1.4 (348.15 K); 15.6 ± 1.3 (358.15 K). The activity coefficient (368.15 K) stood at 14.8 ± 1.3.
For the molecule `CC1CCCCC1` [methylcyclohexane] + CCCC[n+]1ccc(C#N)cc1.O=S(=O)([N-]S(=O)(=O)C(F)(F)F)C(F)(F)F, the activity coefficient reads like this: (308.15 K) 23.4 ± 2; (318.15 K) 21.8 ± 1.9; (328.15 K) 20.4 ± 1.8; (338.15 K) 19.1 ± 1.7; (348.15 K) 18 ± 2; (358.15 K) 17.1 ± 1.5. The activity coefficient (368.15 K) amounted to 16.2 ± 1.4.
On to `COC(C)(C)C` [2-methoxy-2-methylpropane] + CCCC[n+]1ccc(C#N)cc1.O=S(=O)([N-]S(=O)(=O)C(F)(F)F)C(F)(F)F, for which the activity coefficient is, setting by setting: (308.15 K) 3.01 ± 0.26; (318.15 K) 3.13 ± 0.27; (328.15 K) 3.24 ± 0.28; (338.15 K) 3.35 ± 0.29; (348.15 K) 3.45 ± 0.3; (358.15 K) 3.56 ± 0.31. Besides, the activity coefficient (368.15 K) stood at 3.66 ± 0.32.
As to `CCCCCO` [pentan-1-ol] + CCCC[n+]1ccc(C#N)cc1.O=S(=O)([N-]S(=O)(=O)C(F)(F)F)C(F)(F)F, the activity coefficient runs as follows: (308.15 K) 3.84 ± 0.33; (318.15 K) 3.58 ± 0.31; (328.15 K) 3.36 ± 0.29; (338.15 K) 3.15 ± 0.27; (348.15 K) 2.97 ± 0.26; (358.15 K) 2.81 ± 0.24. The activity coefficient (368.15 K) worked out at 2.67 ± 0.23.
Consider `CC(C)(C)O` [2-methylpropan-2-ol] + CCCC[n+]1ccc(C#N)cc1.O=S(=O)([N-]S(=O)(=O)C(F)(F)F)C(F)(F)F, for which the activity coefficient (308.15 K) is 2.28 ± 0.2; the activity coefficient (318.15 K) is 2.14 ± 0.18; the activity coefficient (328.15 K) turned out to be 2.01 ± 0.17; the activity coefficient (338.15 K) came out at 1.9 ± 0.16; the activity coefficient (348.15 K) was found to be 1.8 ± 0.15; the activity coefficient (358.15 K) was 1.71 ± 0.15. The activity coefficient (368.15 K) stood at 1.63 ± 0.14.
